Measurements from article PMC12602503, “AaeAP2a, a scorpion-derived antimicrobial peptide, combats carbapenem-resistant Acinetobacter baumannii via membrane disruption and triggered metabolic collapse” (Frontiers in Microbiology, 2025).
In brackets after ≈: the same amount, converted by molar mass. Entries after “also recorded” stand apart in the source; their conditions may differ. Read-outs that look alike come from different tables or passages of the source. No end group written: not given here.

What was measured:
[1] = tested on: A. baumannii ATCC 19606; experiment: microbe, parasite or virus in culture; assay type: cell-based, Acinetobacter baumannii; settings: for MIC: CLSI M100-ED34, MHB, triplicate; for Interpretation: CLSI interpretation of MIC; for Interpretation: key: R, Resistant; I, Intermediate; S, Sensitive
Experimental: (§1) The inhibitory activity of the antimicrobial peptide was assessed using the broth microdilution method following the CLSI M100-ED34 standard ([Humphries et al., 2021]). A single colony of A. baumannii was isolated and inoculated into Mueller-Hinton Broth (MHB), then incubated overnight at 37 °C with agitation at 180 rpm. The overnight cultures were adjusted to a 0.5 McFarland turbidity standard, after which it was diluted 1:100 in MHB medium. […] A. baumannii ATCC 19606 served as the control strain, and the experiments were conducted in triplicate.

[2] = tested on: CRAB 236; experiment: microbe, parasite or virus in culture; assay type: cell-based, Acinetobacter baumannii; settings: for Interpretation: CLSI interpretation of MIC; for Interpretation: key: R, Resistant; I, Intermediate; S, Sensitive
Experimental: as §1

[3] = tested on: mouse erythrocytes; experiment: Hemolytic activity; assay type: cell-based; settings: 4% mouse erythrocyte suspension, 37 °C, 1 h, OD 540 nm
Experimental: (§2) To systematically evaluate the biosafety of the antimicrobial peptide AaeAP2a, we assessed its hemolytic activity and cytotoxicity ([Liu et al., 2020a]; [Zhou F. et al., 2022]). A 4% (v/v) erythrocyte suspension was prepared from freshly collected anticoagulated mouse blood by repeatedly resuspending and washing the cells three times with phosphate-buffered saline (PBS), following the established protocol. […] In this test, 1% (v/v) Triton X-100 was used as the positive control. Three replicates per treatment group were used to study OD at 540 nm using a microplate reader. The cytotoxicity of AaeAP2a on human embryonic kidney 293 T cells was tested using the Cell Counting Kit - 8 (CCK-8). […] The CCK-8 assay was thus performed, with three replicates recorded for each concentration.

[4] = tested on: horse erythrocytes; settings: 64 μg/mL; 2% horse erythrocyte suspension; ref Du et al.; cited from earlier work
Excerpt: Safety and stability are essential prerequisites for the clinical application of pharmaceutical agents.

[5] = tested on: human embryonic kidney 293 T cells; experiment: Cytotoxicity, CCK-8; assay type: cell-based; settings: 16 × MIC, 24 h
Experimental: as §2

[6] = molecular target: T1, proteinase K (Parengyodontium album, UniProt P06873); experiment: Protease resistance, read out by MIC; assay type: in vitro ADME; settings: proteinase K 0–100 μg/mL, 1 h, 37 °C; MIC vs ATCC 19606; triplicate
T1 construct: purchased Beyotime Biotechnology (China)
T1 sequence (P06873 106-384): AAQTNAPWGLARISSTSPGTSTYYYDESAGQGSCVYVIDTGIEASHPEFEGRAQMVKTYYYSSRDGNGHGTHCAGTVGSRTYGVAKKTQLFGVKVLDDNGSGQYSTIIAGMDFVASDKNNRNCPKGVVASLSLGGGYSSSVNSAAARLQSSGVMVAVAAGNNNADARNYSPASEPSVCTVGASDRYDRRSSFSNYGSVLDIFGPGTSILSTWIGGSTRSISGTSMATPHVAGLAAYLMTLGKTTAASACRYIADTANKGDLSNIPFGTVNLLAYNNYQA
Experimental: (§3) We thoroughly examined the effects of storage at room temperature, repeated freeze–thaw cycles, temperature variations, pH levels, salt ions, urea, and protease treatment on the antimicrobial activity of peptide AaeAP2a ([Zhu et al., 2022]). Through 0 to 12 freeze–thaw iterations, AaeAP2a was incubated for 1 h at various temperatures (0, 25, 50, 75, and 100 °C) and pH values (3 to 11). Additionally, the peptide was incubated with four salt ions—NaCl, KCl, CaCl2, and MgCl2—at concentrations of […], as well as with urea at concentrations of […] for 1 h. Furthermore, AaeAP2a was treated with proteinase K or trypsin at concentrations ranging from 0 to 100 μg/mL (i.e., 0, 20, 40, 60, 80, and 100 μg/mL) for 1 h at 37 °C. The changes in its antimicrobial activity were quantitatively assessed using the MIC method. All assays were conducted in triplicate. […] Proteinase K, Trypsin, and Urea were obtained from Beyotime Biotechnology (China), while all other reagents were purchased from Macklin (China).

[7] = tested on: trypsin; experiment: Protease resistance, read out by MIC; assay type: in vitro ADME; settings: trypsin concentrations exceeding 40 μg/mL, 1 h, 37 °C; MIC vs ATCC 19606; triplicate
Experimental: as §3

[8] = tested on: Escherichia coli biofilms; settings: 1 × MIC; ref Luo et al., 2024; cited from earlier work
Excerpt: In addition to […] the permeability of antimicrobial agents, bacterial biofilms, which rely on a complex matrix of extracellular polymeric substances, support the evolution of bacterial drug resistance, creating a protective barrier against drug-induced killing ([Verderosa et al., 2019]). AMPs have shown dual potential in meeting biofilm-related chronic infections: they can inhibit the initial stages of biofilm formation and eradicate mature biofilms. In this study, AaeAP2a, at a 4 × MIC, obtained an inhibition rate approaching 80% against biofilms formed by two strains of Acinetobacter ...

[9] = Acinetobacter baumannii, ATCC19606, broth microdilution, read-out: MIC
[10] = CRAB 236, broth microdilution, CLSI M100-ED34, MHB, triplicate

CO/N=C(\C(=O)N[C@@H]1C(=O)N2C(C(=O)O)=C(CSc3nc(=O)c(=O)[nH]n3C)CS[C@H]12)c1csc(N)n1 [Ceftriaxone]
MIC [1, 9]: 16 µg/mL (≈ 28.9 µM) | Interpretation [1]: I | MIC ([2]; Acinetobacter baumannii): 32 µg/mL (≈ 57.7 µM) | Interpretation ([2]; CRAB 236): I

FLFKLIPKAIKGLVKAIRK [AaeAP2a]
Hemolysis ([3]; 16 × MIC): < 5% | Hemolysis ([3]; 64 × MIC (200 μg/mL)): < 5% | Hemolysis [4]: complete lysis | Cell viability [5]: > 90% | MIC ([1]; broth microdilution): 3.125 µg/mL | MIC [2, 10]: 6.25 µg/mL | Resistance to proteinase K [6]: substantial resistance | Activity after trypsin treatment [7]: markedly reduced; also recorded: diminished

C[C@@H](O)[C@H]1C(=O)N2C(C(=O)O)=C(S[C@@H]3CN[C@H](C(=O)N(C)C)C3)[C@H](C)[C@H]12 [Meropenem]
MIC [1, 9]: 2 µg/mL (≈ 5.22 µM) | Interpretation [1]: S | MIC ([2]; Acinetobacter baumannii): 16 µg/mL (≈ 41.7 µM) | Interpretation ([2]; CRAB 236): R

Colistin
Interpretation [1]: S | MIC ([1]; broth microdilution): 2 µg/mL | Interpretation ([2]; CRAB 236): S | MIC [2, 10]: 0.5 µg/mL | Eradication efficiency against Escherichia coli biofilms [8]: 35%

CNC(C)C1CCC(N)C(OC2C(N)CC(N)C(OC3OCC(C)(O)C(NC)C3O)C2O)O1 (centres unmarked) [Gentamicin]
MIC [1, 9]: 1 µg/mL (≈ 2.09 µM) | Interpretation [1]: S | MIC ([2]; Acinetobacter baumannii): > 32 µg/mL | Interpretation ([2]; CRAB 236): R

CN(C)[C@@H]1C(O)=C(C(N)=O)C(=O)[C@@]2(O)C(O)=C3C(=O)c4c(O)cccc4[C@@](C)(O)[C@H]3C[C@@H]12 [Tetracycline]
MIC [1, 9]: 2 µg/mL (≈ 4.5 µM) | Interpretation [1]: S | MIC ([2]; Acinetobacter baumannii): 64 µg/mL (≈ 144 µM) | Interpretation ([2]; CRAB 236): R
